According to ChEMBL document CHEMBL6182911, “From Diarylsulfides to Diarylamines: New Ebola Virus Entry Inhibitors with Improved Metabolic Stability” (J Med Chem, 2025):
Calls of active or inactive are those of the source. The calls are words filed in the database; no cut-off is given here.

What was measured:
[1] = Cytotoxicity against African green monkey Vero E6 cells assessed as reduction in cell viability incubated for 24 hrs by CellTiter-Glo Luminescent Cell Viability Assay; type: toxicity, cell-based, Vero C1008; conditions: chlorocebus sabaeus
[2] = tested on: Vesicular stomatitis virus; test: Antiviral activity against VSV-G pseudotyped virus infected in African green monkey Vero E6 cells assessed as inhibition of viral infection at 10 uM preincubated with cells for 1 hr followed by viral infection and measured after 24 hrs by luciferase based luminometric analysis; type: functional, organism-based; conditions: time 25.0 hrs
Ebolavirus [3] = test: Antiviral activity against replicative EBOV Mayinga infected in African green monkey Vero E6 cells assessed as reduction in virus titer in cell culture supernatant incubated for 3 days by immunofocus assay; type: functional, organism-based
Ebolavirus [4] = test: Antiviral activity against VSV-G pseudotyped EBOV-GP Mayinga infected in African green monkey Vero E6 cells assessed as inhibition of viral infection preincubated with cells for 1 hr followed by viral infection and measured after 24 hrs by luciferase based luminometric analysis; type: functional, organism-based; conditions: Orthoebolavirus, Vero C1008
[5] = Selectivity index, ratio of CC50 for cytotoxicity against African green monkey Vero E6 cells to EC50 for antiviral activity against replicative EBOV Mayinga variant infected in African green monkey Vero E6 cells; type: toxicity, cell-based; conditions: read-out: Ratio CC50/EC50
[6] = Selectivity index, ratio of CC50 for cytotoxicity against African green monkey Vero E6 cells to EC50 for antiviral activity against VSV-G pseudotyped EBOV-GP Mayinga infected in African green monkey Vero E6 cells; type: toxicity, cell-based; conditions: read-out: Ratio CC50/EC50
Ebolavirus [7] = test: Binding affinity to EBOV-GP assessed as appearance of STD signals of aromatic region of compound at ligand to protein concentration molar ratio of 100:1 in presence of imipramine by STD-NMR analysis
Ebolavirus [8] = test: Inhibition of cleaved EBOV-GP assessed as disruption of interaction between EBOV-GPcl and Flag-tagged human NPC1 domain C at 50 uM by ELISA
Ebolavirus [9] = test: Binding affinity to EBOV-GP assessed as appearance of STD signals of aromatic region of compound at ligand to protein concentration molar ratio of 100:1 by STD-NMR analysis

Compound: O=C(CN1CCCCC1)Nc1ccccc1Sc1cc(Cl)ccc1[N+](=O)[O-]
- CC50 at 24 h [1]: 250 µM

Compound: O=C(CNCCC1CCN(Cc2ccccc2)CC1)Nc1ccccc1Sc1cc(Cl)ccc1[N+](=O)[O-]
- Activity [2]: inactive

Compound: O=C(CCN1CCCC1)Nc1ccccc1Nc1cc(Cl)ccc1[N+](=O)[O-]
- Activity [2]: inactive

Compound: CCN(CC)CCC(=O)Nc1ccccc1Sc1cc(Cl)ccc1[N+](=O)[O-]
- Activity [2]: inactive

Compound: O=C(CCN1CCCC1)Nc1ccccc1Sc1cc(Cl)ccc1[N+](=O)[O-]
- Activity [2]: inactive
- EC50 (Ebolavirus [3]): Not_active

Compound: O=C(CN1CCCC1)Nc1ccccc1Sc1cc(Cl)ccc1[N+](=O)[O-]
- EC50 (Ebolavirus [3]): Not_active
- CC50 at 24 h [1]: 250 µM

Compound: CCN(CC)CC(=O)NNc1ccccc1Sc1cc(Cl)ccc1[N+](=O)[O-]
- EC50 (Ebolavirus [4]): 4.02 µM

Compound: NC(=O)c1nc(F)c[nH]c1=O
- selectivity ratio [5]: 14.9
- CC50 at 24 h [1]: > 1000 µM

Compound: CCN(CC)CCC(=O)Nc1ccccc1Nc1cc(Cl)ccc1[N+](=O)[O-]
- Activity [2]: inactive

Compound: O=C(CNCCC1CCN(Cc2ccccc2)CC1)Nc1ccccc1Nc1cc(Cl)ccc1[N+](=O)[O-]
- selectivity ratio [6]: 4.1
- selectivity ratio [5]: 2.3
- Activity [2]: inactive
- Activity (Ebolavirus [7]): inactive
- inhibition (Ebolavirus [8]): Active
- Activity (Ebolavirus [9]): Active

Compound: O=C(CCNCCc1ccccc1)Nc1ccccc1Sc1cc(Cl)ccc1[N+](=O)[O-]
- CC50 at 24 h [1]: 250 µM

Compound: CCN(CC)CC(=O)Nc1ccccc1Sc1cc(Cl)ccc1[N+](=O)[O-]
- CC50 at 24 h [1]: 250 µM

Compound: O=C(CN1CCCC1)NNc1ccccc1Sc1cc(Cl)ccc1[N+](=O)[O-]
- EC50 (Ebolavirus [4]): 2.9 µM

Compound: O=C(CNCc1ccccc1)Nc1ccccc1Sc1cc(Cl)ccc1[N+](=O)[O-]
- CC50 at 24 h [1]: 250 µM
